Publication PMC3433420 (PLoS ONE, 2012)
pKd: −log10 of the molar value. Residues, ends and D or L forms follow the SMILES beside them.

How the values were obtained:
HSH2D SH2 domain = target: T1, HSH2D SH2 domain (Homo sapiens, UniProt Q96JZ2); assay: FP saturation binding assay
T1 sequence (Q96JZ2 34-125 limits assumed): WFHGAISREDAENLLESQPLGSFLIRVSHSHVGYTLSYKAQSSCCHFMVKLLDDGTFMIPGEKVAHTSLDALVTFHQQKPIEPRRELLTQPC

PTK6 SH2 domain = target: T2, PTK6 SH2 domain (Homo sapiens, UniProt Q13882); assay: FP saturation binding assay; details: protein PTK6; FP, high-confidence ErbB interactions; mean of replicate hits
T2 construct: from the PTK6 SH2 domain; 6X His; thioredoxin; made in house; host or cells: E. coli BL21(DE3)pLysS
T2 sequence (Q13882 78-170 limits assumed): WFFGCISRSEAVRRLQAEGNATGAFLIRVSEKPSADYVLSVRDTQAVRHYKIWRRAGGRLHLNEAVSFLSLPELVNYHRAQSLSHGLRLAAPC
Experimental: (See Figure 1A) Rhodamine-labeled peptides were dissolved in assay buffer (20 mM HEPES, 100 mM KCl, 0.1% Tween-20, 5 mM DTT, pH 7.8), diluted to a concentration of 20 nM, and plated into black 384-well plates (Corning, Corning, NY) at 5 µL/well using a Perkin Elmer EP3 pipetting workstation (V&P Scientific, Inc., San Diego, CA). SH2, PTB, and thioredoxin control proteins were plated into the first column of 2 mL 96-well plates (Corning) at a concentration of 20 µM and serially diluted 1∶2 into freezing buffer (300 mM NaCl, 50 mM Na2PO4, pH 8, 20% glycerol v/v) eleven times using a Tecan Freedom EVO 100 workstation (Tecan, Männedorf, Switzerland). For the interaction assay, 5 µL of each of the twelve protein concentrations was added to the peptide-containing 384-well plates via the EP3 resulting in a protein dilution range of 0.002–10 µM and a final volume of 10 µL; peptide concentration was fixed at 10 nM. Peptide/protein samples were incubated for 20 minutes at room temperature in the dark and fluorescence polarization (FP) was measured in an Analyst GT multimode reader (Molecular Devices, Sunnyvale, CA) with excitation and emission wavelengths of 530 nm and 555 nm, respectively. Experimental values were output as millipolarization (mP) units and imported into MATLAB (The MathWorks, Inc., Natick, MA) in which equation (1) was used to determine dissociation constants (KDs) for each protein/peptide pairing by least squares nonlinear regression. [drawing 1] (1)
FP was described by the following equation: P=Iparallel-IperpendicularIparallel+Iperpendicular, where “P” denotes polarization, and “I” denotes the fluorescent intensity relative to the plane of incident light. Experimental values were output as millipolarization (mP) units and imported into MATLAB where the following equation was used to determine dissociation constants (KDs) for each protein/peptide pairing by least squares nonlinear regression:
Pobs=Pmax∙ProteinKD+Protein [picture] (1)
Peptides were initially tested for systematic plate effects across protein dilutions and nonspecific binding to thioredoxin by linear regression analysis and any effects were regressed out. The median baseline control polarization value for each plate was then subtracted from each data point to make each binding curve intersect at zero. Plates with excessive variation in baseline control polarizations on both a global and run-specific manner (Dixon’s Q test, p < 0.05) were excluded from further analysis. Outliers in each binding curve were identified and removed using an iterative procedure as follows. The residuals for each fit were used to calculate a global standard deviation of the residuals (GSDR) for each concentration of SH2 domain over all interactions, and individual data points with residuals < or > two GSDR from the global mean residual were flagged as outliers. The outlier with the largest residual from each interaction was removed and nonlinear regression was again performed. This procedure was repeated if additional outliers were identified for an interaction, discarding the interaction if the number of outliers exceeded three. […] In order to further control our false positive rate against hidden confounding variables producing binding artifacts, we sought to determine whether there was a significant relationship between the strength of an interaction and its technical replication rate at our stringent significance and filtering thresholds. We performed logistic regression on the proportion of successful replicates for each interaction query against KD for all interactions (Figure S15A). […] This is related to the observation that the majority of interactions detected by FP are tight (Figure S15B). With this logit model, we assigned a probability to each peptide-protein interaction in our data by using a binomial proportions test to compare the observed versus the expected replication rate at the particular KD of that interaction (Table S4). […]

SH2 and PTB domains [1] = target: T3, SH2 and PTB domains (Homo sapiens, UniProt P42684); assay: In-house protein microarrays (with or without 5 mM DTT), protein named per line; assay type: binding; details: protein ABL2, array fabrication # 39336
T3 construct: thioredoxin; made in house; host or cells: BL21(DE3)pLysS E. coli
T3 sequence (P42684 whole entry, the tested form may be a part): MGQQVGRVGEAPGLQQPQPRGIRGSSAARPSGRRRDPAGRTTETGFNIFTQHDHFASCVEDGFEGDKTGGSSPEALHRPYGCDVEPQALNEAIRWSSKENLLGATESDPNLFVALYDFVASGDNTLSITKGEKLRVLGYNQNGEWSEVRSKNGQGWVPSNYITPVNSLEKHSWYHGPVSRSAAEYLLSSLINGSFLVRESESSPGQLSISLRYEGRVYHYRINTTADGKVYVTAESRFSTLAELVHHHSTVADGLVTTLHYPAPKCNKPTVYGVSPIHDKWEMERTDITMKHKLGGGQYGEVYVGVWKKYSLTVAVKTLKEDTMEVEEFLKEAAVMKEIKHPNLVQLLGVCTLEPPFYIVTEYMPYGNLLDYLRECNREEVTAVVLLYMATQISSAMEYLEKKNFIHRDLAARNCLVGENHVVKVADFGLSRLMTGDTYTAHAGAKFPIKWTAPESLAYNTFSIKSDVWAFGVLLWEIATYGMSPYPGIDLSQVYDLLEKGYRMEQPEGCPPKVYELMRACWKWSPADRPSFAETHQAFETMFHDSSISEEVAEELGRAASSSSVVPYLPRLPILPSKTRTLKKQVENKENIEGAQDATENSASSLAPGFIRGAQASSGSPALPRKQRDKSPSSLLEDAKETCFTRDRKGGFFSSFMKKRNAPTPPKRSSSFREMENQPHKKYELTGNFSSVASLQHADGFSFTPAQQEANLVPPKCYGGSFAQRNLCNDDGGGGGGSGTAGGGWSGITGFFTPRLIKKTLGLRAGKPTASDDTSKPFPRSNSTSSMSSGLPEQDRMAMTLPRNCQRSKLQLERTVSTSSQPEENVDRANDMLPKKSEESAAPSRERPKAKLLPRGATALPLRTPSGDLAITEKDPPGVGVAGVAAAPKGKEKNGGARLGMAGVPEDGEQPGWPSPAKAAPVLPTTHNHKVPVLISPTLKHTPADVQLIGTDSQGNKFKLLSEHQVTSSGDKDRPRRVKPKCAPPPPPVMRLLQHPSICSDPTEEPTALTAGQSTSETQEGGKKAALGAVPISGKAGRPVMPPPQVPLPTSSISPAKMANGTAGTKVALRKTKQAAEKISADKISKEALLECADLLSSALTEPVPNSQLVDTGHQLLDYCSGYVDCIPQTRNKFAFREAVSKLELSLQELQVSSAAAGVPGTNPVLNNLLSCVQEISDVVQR
Experimental: (§1) 300 pL of purified recombinant proteins and a thioredoxin tag control were spotted at a concentration of ∼40 µM in duplicate onto aldehyde-coated microscope slides (Erie Scientific Company, Portsmouth, NH) using a Nano-Plotter (NP) 2.1/E noncontact microarrayer (GeSiM, Munich, Germany). 16 identical microarrays per slide were printed in a 2×8 (column by row) format with distances of 9 mm between individual arrays; each array consisted of a 14×14 configuration of spots 400 µm apart. Following printing at a constant humidity level of 50%, slides were desiccated overnight and stored at −80°C. For peptide probing, array slides were transferred to 96-well microplates (TeleChem International, Inc., Sunnyvale, CA) and sandwiched with silicone gaskets. Prior to peptide addition, aldehyde sites were quenched with buffer B (20 mM HEPES, 100 mM KCl, 0.1% Tween-20, 5 mM DTT, pH 7.8) containing 1% bovine serum albumin (BSA) (w/v) for one hour at room temperature; moderate agitation was applied in a plate shaker (IKA, Germany) to displace glycerol from the surface area of protein sample spots. […] The arrays were subsequently washed once with 300 µL of buffer B and once with 300 µL of ddH2O. Residual water was removed by centrifugation; slides were stored under desiccation in the dark until analysis.
(§2) Microarray slides were scanned at a resolution of 10 µm using a GenePix 4000B microarray scanner and analyzed using GenePix Pro v6.0 software (Molecular Devices, Sunnyvale, CA). To independently visualize protein spots irrespective of peptide binding, samples were printed simultaneously with 400 nM of Cyanine-5 (Cy5) labeled bovine serum albumin (BSA). […] Following spot layout identification via Cy5 labeled BSA, the mean fluorescence intensity of rhodamine for duplicate protein spots was quantified and normalized by subtracting the corresponding mean fluorescence intensity of thioredoxin. Normalized fluorescence values were then imported into MATLAB and KDs determined as previously described.

SH2 and PTB domains [2] = target: T4, SH2 and PTB domains (Homo sapiens, UniProt P78314); assay: as above; assay type: binding; details: protein SH3BP2, array fabrication # 39336
T4 construct: thioredoxin; made in house; host or cells: BL21(DE3)pLysS E. coli
T4 sequence (P78314 1-561): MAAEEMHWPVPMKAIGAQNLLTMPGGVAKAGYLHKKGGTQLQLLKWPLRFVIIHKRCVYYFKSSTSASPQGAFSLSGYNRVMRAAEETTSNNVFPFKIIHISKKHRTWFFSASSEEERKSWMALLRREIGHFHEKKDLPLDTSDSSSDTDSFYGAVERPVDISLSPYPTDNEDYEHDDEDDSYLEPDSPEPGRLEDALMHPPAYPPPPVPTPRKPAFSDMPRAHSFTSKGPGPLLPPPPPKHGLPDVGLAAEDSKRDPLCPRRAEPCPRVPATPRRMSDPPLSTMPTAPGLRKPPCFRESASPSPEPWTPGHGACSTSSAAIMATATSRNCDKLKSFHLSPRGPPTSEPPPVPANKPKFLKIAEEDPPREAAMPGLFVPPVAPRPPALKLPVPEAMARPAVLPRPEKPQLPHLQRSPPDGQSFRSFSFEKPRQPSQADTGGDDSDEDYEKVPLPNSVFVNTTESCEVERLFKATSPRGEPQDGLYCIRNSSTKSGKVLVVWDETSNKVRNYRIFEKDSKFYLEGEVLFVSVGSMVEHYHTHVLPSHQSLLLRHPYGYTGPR
Experimental: as §1, §2

SH2 and PTB domains [3] = target: T5, SH2 and PTB domains (Homo sapiens, UniProt P43405); assay: as above; assay type: binding; details: protein SYK-NC, array fabrication # 39336
T5 construct: thioredoxin; made in house; host or cells: BL21(DE3)pLysS E. coli
Experimental: as §1, §2

SH2 and PTB domains [4] = target: T6, SH2 and PTB domains (Homo sapiens, UniProt P07947); assay: as above; assay type: binding; details: protein YES1, array fabrication # 39336
T6 construct: thioredoxin; made in house; host or cells: BL21(DE3)pLysS E. coli
T6 sequence (P07947 whole entry, the tested form may be a part): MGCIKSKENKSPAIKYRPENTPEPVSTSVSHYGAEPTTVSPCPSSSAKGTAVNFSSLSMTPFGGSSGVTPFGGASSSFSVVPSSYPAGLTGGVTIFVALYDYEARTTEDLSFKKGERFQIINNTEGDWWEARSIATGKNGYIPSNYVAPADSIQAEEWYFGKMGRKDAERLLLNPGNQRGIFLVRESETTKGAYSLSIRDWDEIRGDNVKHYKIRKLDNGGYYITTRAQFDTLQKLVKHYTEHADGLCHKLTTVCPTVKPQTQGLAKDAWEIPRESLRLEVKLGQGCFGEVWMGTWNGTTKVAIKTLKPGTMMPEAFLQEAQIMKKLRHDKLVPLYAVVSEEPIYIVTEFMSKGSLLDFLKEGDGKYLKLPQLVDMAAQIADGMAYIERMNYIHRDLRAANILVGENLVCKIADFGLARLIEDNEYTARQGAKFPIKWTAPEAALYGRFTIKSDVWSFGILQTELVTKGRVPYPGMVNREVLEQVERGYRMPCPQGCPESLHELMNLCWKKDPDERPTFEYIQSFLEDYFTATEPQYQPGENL
Experimental: as §1, §2

SH2 and PTB domains [5] = target: T7, SH2 and PTB domains (Homo sapiens, UniProt P16885); assay: as above; assay type: binding; details: protein PLCG2-NC, array fabrication # 39336
T7 construct: thioredoxin; made in house; host or cells: BL21(DE3)pLysS E. coli
T7 sequence (P16885 1-1265): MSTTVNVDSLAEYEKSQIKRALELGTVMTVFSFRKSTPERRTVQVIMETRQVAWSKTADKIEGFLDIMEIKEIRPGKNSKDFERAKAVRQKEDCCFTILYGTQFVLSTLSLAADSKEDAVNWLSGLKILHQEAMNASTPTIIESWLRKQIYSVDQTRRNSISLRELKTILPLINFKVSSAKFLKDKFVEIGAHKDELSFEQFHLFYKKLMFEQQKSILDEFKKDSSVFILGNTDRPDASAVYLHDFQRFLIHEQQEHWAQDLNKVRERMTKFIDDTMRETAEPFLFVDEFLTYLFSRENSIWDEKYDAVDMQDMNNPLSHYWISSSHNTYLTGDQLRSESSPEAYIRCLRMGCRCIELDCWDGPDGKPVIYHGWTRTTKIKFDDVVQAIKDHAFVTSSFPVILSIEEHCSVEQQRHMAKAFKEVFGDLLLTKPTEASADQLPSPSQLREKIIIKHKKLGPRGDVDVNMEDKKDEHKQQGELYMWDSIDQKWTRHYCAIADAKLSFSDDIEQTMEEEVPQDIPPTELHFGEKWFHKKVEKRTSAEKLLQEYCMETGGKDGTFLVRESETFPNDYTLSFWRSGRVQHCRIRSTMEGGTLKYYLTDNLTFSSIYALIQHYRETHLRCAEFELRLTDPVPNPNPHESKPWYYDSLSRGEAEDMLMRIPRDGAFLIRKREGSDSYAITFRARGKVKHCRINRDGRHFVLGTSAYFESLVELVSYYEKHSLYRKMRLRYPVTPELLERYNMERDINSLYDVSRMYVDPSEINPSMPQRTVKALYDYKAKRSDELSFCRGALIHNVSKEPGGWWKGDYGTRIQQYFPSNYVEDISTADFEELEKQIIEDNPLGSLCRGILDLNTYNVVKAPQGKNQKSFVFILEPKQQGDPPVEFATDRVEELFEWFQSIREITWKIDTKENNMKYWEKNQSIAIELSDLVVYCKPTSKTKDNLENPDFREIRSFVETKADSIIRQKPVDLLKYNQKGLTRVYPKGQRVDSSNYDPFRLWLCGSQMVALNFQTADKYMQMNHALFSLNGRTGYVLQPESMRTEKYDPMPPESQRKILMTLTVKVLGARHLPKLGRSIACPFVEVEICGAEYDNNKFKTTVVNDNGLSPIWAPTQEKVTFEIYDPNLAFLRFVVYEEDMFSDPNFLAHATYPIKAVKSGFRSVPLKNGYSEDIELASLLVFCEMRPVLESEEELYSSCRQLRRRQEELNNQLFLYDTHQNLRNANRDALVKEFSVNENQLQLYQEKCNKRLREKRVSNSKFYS
Experimental: as §1, §2

SH2 and PTB domains [6] = target: T8, SH2 and PTB domains (Homo sapiens, UniProt P51451); assay: as above; assay type: binding; details: protein BLK, array fabrication # 39336
T8 construct: thioredoxin; made in house; host or cells: BL21(DE3)pLysS E. coli
T8 sequence (P51451 whole entry, the tested form may be a part): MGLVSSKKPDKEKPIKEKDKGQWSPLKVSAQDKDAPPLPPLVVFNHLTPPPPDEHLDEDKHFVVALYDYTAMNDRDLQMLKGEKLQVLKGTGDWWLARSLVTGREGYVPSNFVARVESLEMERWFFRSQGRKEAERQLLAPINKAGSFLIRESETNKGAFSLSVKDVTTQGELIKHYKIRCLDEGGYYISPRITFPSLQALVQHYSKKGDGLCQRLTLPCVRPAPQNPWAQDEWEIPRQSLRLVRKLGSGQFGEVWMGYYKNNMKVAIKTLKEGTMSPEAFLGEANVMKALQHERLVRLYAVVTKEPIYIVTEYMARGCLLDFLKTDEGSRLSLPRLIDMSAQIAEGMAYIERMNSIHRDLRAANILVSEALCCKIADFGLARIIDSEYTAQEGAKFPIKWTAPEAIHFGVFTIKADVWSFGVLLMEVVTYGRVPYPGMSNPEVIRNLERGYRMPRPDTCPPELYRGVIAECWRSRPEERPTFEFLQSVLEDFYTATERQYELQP
Experimental: as §1, §2

## C[C@H](NC(=O)[C@H](CC(N)=O)NC(=O)[C@H](Cc1c[nH]cn1)NC(=O)[C@H](Cc1ccc(OP(=O)(O)O)cc1)NC(=O)[C@H](CCC(=O)O)NC(=O)[C@@H]1CCCN1C(=O)[C@H](CC(N)=O)NC(=O)[C@@H](N)CC(=O)O)C(=O)N[C@@H](CO)C(=O)N[C@@H](CC(N)=O)C(=O)NCC(=O)N1CCC[C@H]1C(=O)N[C@@H](CC(=O)O)C(=O)O [ErbB4 1188 13-mer] (HELM PEPTIDE1{D.N.P.E.[O=C([C@H](Cc1ccc(OP(=O)(O)O)cc1)N[*:1])[*:2]].H.N.A.S.N.G.P.D}$$$$V2.0)
HSH2D SH2 domain
  pKd: 5.52
PTK6 SH2 domain
  pKd: 5.03

## CC(C)C[C@H](NC(=O)[C@@H](NC(=O)[C@@H](NC(=O)CNC(=O)[C@@H]1CCCN1)[C@@H](C)O)C(C)C)C(=O)N1CCC[C@H]1C(=O)N1CCC[C@H]1C(=O)N1CCC[C@H]1C(=O)N1CCC[C@H]1C(=O)N[C@@H](Cc1ccc(OP(=O)(O)O)cc1)C(=O)N[C@@H](CCCNC(=N)N)C(=O)N[C@@H](Cc1c[nH]cn1)C(=O)N[C@@H](CCCNC(=N)N)C(=O)N[C@@H](CC(N)=O)C(=O)N[C@H](C(=O)N[C@H](C(=O)N[C@H](C(=O)N[C@@H](CC(=O)O)C(=O)O)C(C)C)C(C)C)[C@@H](C)O [ErbB4 pY1301 (18-mer)] (HELM PEPTIDE1{P.G.T.V.L.P.P.P.P.[O=C([C@H](Cc1ccc(OP(=O)(O)O)cc1)N[*:1])[*:2]].R.H.R.N.T.V.V.D}$$$$V2.0)
SH2 and PTB domains [1]; PM assay replicate # 39341
  Kd: 1030 nM
SH2 and PTB domains [1]; PM assay replicate # 39342
  Kd: 0.68 nM
SH2 and PTB domains [2]; PM assay replicate # 39341
  Kd: 1180 nM
SH2 and PTB domains [2]; PM assay replicate # 39342
  Kd: 1610 nM
SH2 and PTB domains [3]; PM assay replicate # 39341
  Kd: 800 nM
SH2 and PTB domains [3]; PM assay replicate # 39342
  Kd: 1170 nM
SH2 and PTB domains [4]; PM assay replicate # 39341
  Kd: 1370 nM
SH2 and PTB domains [4]; PM assay replicate # 39342
  Kd: 4860 nM
SH2 and PTB domains [5]; PM assay replicate # 39341
  Kd: 810 nM
SH2 and PTB domains [5]; PM assay replicate # 39342
  Kd: 8370 nM
SH2 and PTB domains [6]; PM assay replicate # 39341
  Kd: 1180 nM
SH2 and PTB domains [6]; PM assay replicate # 39342
  Kd: 1600 nM
